Test results reported in ChEMBL document CHEMBL1141727, “Isolation and cytotoxic evaluation of marine sponge-derived norterpene peroxides” (J Nat Prod, 1998).

Legend:
Type in all cases: functional
[1] = system: CCRF-CEM; assay: Growth inhibition of human CCRF-CEM cells
[2] = system: HL-60(TB); assay: Growth inhibition of human HL-60(TB) cells
[3] = system: K562; assay: Growth inhibition of human K562 cells
[4] = system: MOLT-4; assay: Growth inhibition of human MOLT4 cells
[5] = Growth inhibition of human […] cells
[6] = system: SR; assay: Growth inhibition of human SR cells
[7] = system: A549; assay: Growth inhibition of human A549 cells
[8] = system: EKVX; assay: Growth inhibition of human EKVX cells
[9] = system: HOP-62; assay: Growth inhibition of human HOP62 cells
[10] = system: HOP-92; assay: Growth inhibition of human HOP92 cells
[11] = system: NCI-H226; assay: Growth inhibition of human NCI-H226 cells
[12] = system: NCI-H23; assay: Growth inhibition of human NCI-H23 cells
[13] = system: NCI-H322M; assay: Growth inhibition of human NCI-H322M cells
[14] = system: NCI-H460; assay: Growth inhibition of human NCI-H460 cells
[15] = system: NCI-H522; assay: Growth inhibition of human NCI-H522 cells
[16] = system: COLO 205; assay: Growth inhibition of human COLO205 cells
[17] = system: HCC 2998; assay: Growth inhibition of human HCC2998 cells
[18] = system: HCT-116; assay: Growth inhibition of human HCT116 cells
[19] = system: HCT-15; assay: Growth inhibition of human HCT15 cells
[20] = system: HT-29; assay: Growth inhibition of human HT-29 cells
[21] = system: KM12; assay: Growth inhibition of human KM12 cells
[22] = system: SW-620; assay: Growth inhibition of human SW620 cells
[23] = system: SF-268; assay: Growth inhibition of human SF268 cells
[24] = system: SF-295; assay: Growth inhibition of human SF295 cells
[25] = system: SF-539; assay: Growth inhibition of human SF539 cells
[26] = system: SNB-19; assay: Growth inhibition of human SNB19 cells
[27] = system: SNB-75; assay: Growth inhibition of human SNB75 cells
[28] = system: U-251; assay: Growth inhibition of human U251 cells
[29] = system: LOX IMVI; assay: Growth inhibition of human LOXIMVI cells
[30] = system: Malme-3M; assay: Growth inhibition of human MALME-3M cells
[31] = system: M14; assay: Growth inhibition of human M14 cells
[32] = system: SK-MEL-2; assay: Growth inhibition of human SK-MEL-2 cells
[33] = system: SK-MEL-28; assay: Growth inhibition of human SK-MEL-28 cells
[34] = system: SK-MEL-5; assay: Growth inhibition of human SK-MEL-5 cells
[35] = system: UACC-257; assay: Growth inhibition of human UACC257 cells
[36] = system: UACC-62; assay: Growth inhibition of human UACC62 cells
[37] = system: IGROV-1; assay: Growth inhibition of human IGROV1 cells
[38] = system: OVCAR-3; assay: Growth inhibition of human OVCAR-3 cells
[39] = system: OVCAR-4; assay: Growth inhibition of human OVCAR4 cells
[40] = system: OVCAR-5; assay: Growth inhibition of human OVCAR5 cells
[41] = system: OVCAR-8; assay: Growth inhibition of human OVCAR8 cells
[42] = system: SK-OV-3; assay: Growth inhibition of human SKOV3 cells
[43] = system: 786-0; assay: Growth inhibition of human 786-0 cells
[44] = system: A498; assay: Growth inhibition of human A498 cells
[45] = system: ACHN; assay: Growth inhibition of human ACHN cells
[46] = system: CAKI-1; assay: Growth inhibition of human Caki1 cells
[47] = system: RXF 393; assay: Growth inhibition of human […] cells
[48] = system: SN12C; assay: Growth inhibition of human SN12C cells
[49] = system: TK-10; assay: Growth inhibition of human TK10 cells
[50] = system: UO-31; assay: Growth inhibition of human UO31 cells
[51] = system: PC-3; assay: Growth inhibition of human PC3 cells
[52] = system: DU-145; assay: Growth inhibition of human DU145 cells
[53] = system: MCF7; assay: Growth inhibition of human MCF7 cells
[54] = Growth inhibition of human MCF7/ADR resistant cells; conditions: NCI/ADR-RES
[55] = system: MDA-MB-231; assay: Growth inhibition of human MDA-MB-231 cells
[56] = Growth inhibition of human Hs 578T cells
[57] = system: MDA-MB-435; assay: Growth inhibition of human MDA-MB-435 cells
[58] = system: MDA-N; assay: Growth inhibition of human MDA-N cells
[59] = system: BT-549; assay: Growth inhibition of human BT549 cells
[60] = system: T47D; assay: Growth inhibition of human T47D cells
[61] = system: L1210; assay: Growth inhibition of mouse L1210 cells assessed as zone units at 50 ug/disk by disk diffusion agar colony formation assay
[62] = system: P388; assay: Growth inhibition of mouse P388 cells assessed as zone units at 50 ug/disk by disk diffusion agar colony formation assay
[63] = system: MC-38; assay: Growth inhibition of mouse C38 cells assessed as zone units at 50 ug/disk by disk diffusion agar colony formation assay
[64] = Growth inhibition of mouse M17/ADR cells assessed as zone units at 50 ug/disk by disk diffusion agar colony formation assay
[65] = Growth inhibition of human H125 cells assessed as zone units at 50 ug/disk by disk diffusion agar colony formation assay
[66] = system: PO3; assay: Growth inhibition of mouse PO3 cells assessed as zone units at 50 ug/disk by disk diffusion agar colony formation assay

`C=C1CCCC(C)(C)C1CC[C@]1(C)CC[C@H]([C@@H](C)C(=O)OC)OO1` (stereo partly specified) [NUAPAPUIN B] showed a GI50 [1] of 1.27 µM, a GI50 [2] of 1.6 µM and a GI50 [3] of 6.38 µM. For the same compound, the GI50 [4] was 7.04 µM, the GI50 [5] was 4.04 µM and the GI50 [6] was 2.17 µM. It also gave a GI50 [7] of 0.64 µM, a GI50 [8] of 7.9 µM and a GI50 [9] of 0.71 µM. It also gave a GI50 [10] of 0.76 µM, a GI50 [11] of 6.17 µM and a GI50 [12] of 3.54 µM. For the same compound, the GI50 [13] was 6.9 µM, the GI50 [14] was 0.91 µM and the GI50 [15] was 3.05 µM. The GI50 [16] was 4.54 µM, the GI50 [17] was 3.68 µM and the GI50 [18] was 8.14 µM. The GI50 [19] was 13.1 µM, the GI50 [20] was 0.38 µM and the GI50 [21] was 0.4 µM. The GI50 [22] was 7.53 µM, the GI50 [23] was 3.19 µM and the GI50 [24] was 4.42 µM. The GI50 [25] was 6.25 µM, the GI50 [26] was 5.47 µM and the GI50 [27] was 2.67 µM. It also gave a GI50 [28] of 2.91 µM, a GI50 [29] of 0.47 µM and a GI50 [30] of 21 µM. For the same compound, the GI50 [31] was 6.43 µM, the GI50 [32] was 8.28 µM and the GI50 [33] was 20.6 µM. For the same compound, the GI50 [34] was 3.94 µM, the GI50 [35] was 16.3 µM and the GI50 [36] was 4.13 µM. It also gave a GI50 [37] of 0.5 µM, a GI50 [38] of 21.8 µM and a GI50 [39] of 4.01 µM. It also gave a GI50 [40] of 4.76 µM, a GI50 [41] of 5.76 µM and a GI50 [42] of 4.4 µM. It also gave a GI50 [43] of 0.27 µM, a GI50 [44] of 4.92 µM and a GI50 [45] of 0.48 µM. It also gave a GI50 [46] of 0.32 µM, a GI50 [47] of 2.62 µM and a GI50 [48] of 3.73 µM. It also gave a GI50 [49] of 4.21 µM, a GI50 [50] of 0.52 µM and a GI50 [51] of 3.63 µM. For the same compound, the GI50 [52] was 3.67 µM, the GI50 [53] was 18.4 µM and the GI50 [54] was 5.67 µM. The GI50 [55] was 757 µM, the GI50 [56] was 4.6 µM and the GI50 [57] was 4.34 µM. The GI50 [58] was 3.54 µM, the GI50 [59] was 4.95 µM and the GI50 [60] was 2.94 µM. It also gave an Activity [61] of 180 Zone units, an Activity [62] of 180 Zone units and an Activity [63] of 300 Zone units. It also gave an Activity [64] of 100 Zone units and an Activity [65] of 200 Zone units.
Compound `C=C1CCCC(C)(C)C1(O)CC/C(C)=C/CC[C@]1(C)CC[C@@H]([C@@H](C)C(=O)OC)OO1` (stereo partly specified) [MUQUBILIN B] has a GI50 [1] greater than 17.5 µM, a GI50 [2] greater than 17.5 µM and a GI50 [3] greater than 17.5 µM. For the same compound, the GI50 [4] was greater than 17.5 µM, the GI50 [5] was greater than 17.5 µM and the GI50 [6] was greater than 17.5 µM. The GI50 [7] was greater than 17.5 µM, the GI50 [8] was greater than 17.5 µM and the GI50 [9] was greater than 17.5 µM. The GI50 [10] was greater than 17.5 µM, the GI50 [11] was greater than 17.5 µM and the GI50 [12] was greater than 17.5 µM. The GI50 [13] was greater than 17.5 µM, the GI50 [15] was 12.8 µM and the GI50 [16] was greater than 17.5 µM. For the same compound, the GI50 [17] was greater than 17.5 µM, the GI50 [18] was greater than 17.5 µM and the GI50 [19] was greater than 17.5 µM. The GI50 [20] was greater than 17.5 µM, the GI50 [21] was greater than 17.5 µM and the GI50 [22] was greater than 17.5 µM. For the same compound, the GI50 [24] was greater than 17.5 µM, the GI50 [25] was greater than 17.5 µM and the GI50 [26] was greater than 17.5 µM. The GI50 [27] was 15 µM, the GI50 [28] was greater than 17.5 µM and the GI50 [29] was 5.22 µM. The GI50 [30] was greater than 17.5 µM, the GI50 [31] was greater than 17.5 µM and the GI50 [32] was greater than 17.5 µM. It also gave a GI50 [33] greater than 17.5 µM, a GI50 [34] greater than 17.5 µM and a GI50 [35] greater than 17.5 µM. For the same compound, the GI50 [36] was greater than 17.5 µM, the GI50 [37] was 2.42 µM and the GI50 [38] was greater than 17.5 µM. The GI50 [39] was greater than 17.5 µM, the GI50 [40] was greater than 17.5 µM and the GI50 [41] was greater than 17.5 µM. It also gave a GI50 [42] greater than 17.5 µM, a GI50 [43] greater than 17.5 µM and a GI50 [44] greater than 17.5 µM. For the same compound, the GI50 [45] was greater than 17.5 µM, the GI50 [46] was greater than 17.5 µM and the GI50 [47] was greater than 17.5 µM. The GI50 [49] was greater than 17.5 µM, the GI50 [50] was greater than 17.5 µM and the GI50 [52] was greater than 17.5 µM. For the same compound, the GI50 [53] was greater than 17.5 µM, the GI50 [54] was greater than 17.5 µM and the GI50 [55] was greater than 17.5 µM. For the same compound, the GI50 [57] was greater than 17.5 µM, the Activity [61] was 80 Zone units and the Activity [62] was 80 Zone units. For the same compound, the Activity [66] was 90 Zone units and the Activity [65] was 0 Zone units.
